These results are taken from US8637237B2, “Methods, compositions, and systems for the identification of species-specific or developmental stage-specific insecticides” (The University of North Carolina at Greensboro, priority 2003, dated 2014).

The target of the assay is T1, FXR (Rattus norvegicus, UniProt Q62735).
T1 sequence (Q62735 1-469): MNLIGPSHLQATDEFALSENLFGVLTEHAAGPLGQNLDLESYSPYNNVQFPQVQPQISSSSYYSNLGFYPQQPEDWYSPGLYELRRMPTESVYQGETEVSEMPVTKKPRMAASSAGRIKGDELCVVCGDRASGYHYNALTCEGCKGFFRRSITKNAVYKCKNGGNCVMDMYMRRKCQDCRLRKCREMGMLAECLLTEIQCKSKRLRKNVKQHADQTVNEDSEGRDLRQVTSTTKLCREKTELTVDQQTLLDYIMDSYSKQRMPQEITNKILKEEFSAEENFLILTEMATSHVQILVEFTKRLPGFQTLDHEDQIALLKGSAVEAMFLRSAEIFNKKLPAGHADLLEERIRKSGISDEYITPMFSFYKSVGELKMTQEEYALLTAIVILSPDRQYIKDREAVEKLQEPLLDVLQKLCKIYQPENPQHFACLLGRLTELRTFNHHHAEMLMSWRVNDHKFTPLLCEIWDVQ
T1 sequence (P28700 1-467 partner): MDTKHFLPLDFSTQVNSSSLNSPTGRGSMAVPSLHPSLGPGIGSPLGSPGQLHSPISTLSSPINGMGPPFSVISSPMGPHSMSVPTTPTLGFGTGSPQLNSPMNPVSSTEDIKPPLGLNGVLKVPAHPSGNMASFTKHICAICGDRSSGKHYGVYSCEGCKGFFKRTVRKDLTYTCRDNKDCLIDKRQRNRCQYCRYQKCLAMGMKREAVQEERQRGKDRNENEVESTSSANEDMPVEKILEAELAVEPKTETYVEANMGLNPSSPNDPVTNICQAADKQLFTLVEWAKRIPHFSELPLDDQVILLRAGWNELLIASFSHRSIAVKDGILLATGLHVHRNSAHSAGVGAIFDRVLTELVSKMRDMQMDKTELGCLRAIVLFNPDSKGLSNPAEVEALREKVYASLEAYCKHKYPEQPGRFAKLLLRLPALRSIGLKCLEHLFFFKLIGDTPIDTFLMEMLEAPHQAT
The assay is described as follows: cell-based. How it is done: These experiments employed a mammalian cell culture system using Chinese hamster ovary cells (CHO) to evaluate the transcriptional function of Drosophila melanogaster EcR and USP using methods described previously (U.S. Patent Application Publication No: 2005/0049230; Henrich et al, 2003). Cells were seeded in 6-well polypropylene culture plates (Falcon) with 10^5 cells per well on the day prior to transfection. Transfection was subsequently performed using either calcium phosphate (Kitareewan et al., 1996, Mol. Biol. Cell, 7:1153-1196) or a GenePorter reagent (Gene Therapy Systems, Inc; San Diego, Calif.) following manufacturer's protocols. Each well received 1.25 μg of (EcRE)5-ΔMTV-CAT (five copies of the hsp27 EcRE inserted into an mouse mammary tumor virus (MTV) promoter upstream of the chloramphenicol acetyltransferase (CAT) gene) or (EcRE)5-ΔMTV-LUC (the same promoter attached to firefly luciferase), 1.25 μg of pCH111 (SV40 early promoter linked to the β-galactosidase gene) to normalize CAT activity, and 0.25 μg of each expression plasmid (EcR, FXR, RXR, USP) that was tested. The cells were incubated with plasmid DNA for seven hours and then washed with 1×PBS. Muristerone A (murA; Alexis Biochemicals) or 20-hydroxyecdysone (20E; Sigma) dissolved in ethanol to a concentration of 10 mM was diluted as necessary to the final assay concentration (FAC) in 2 ml of fresh incubation medium that was then applied to the cells. Similarly, JHIII (Sigma) was dissolved in dimethyl sulfoxide (DMSO) to a concentration of […] and diluted into the incubation medium to its final assay concentration (20, 40, 80, 160 μM). […] A corresponding volume of ethanol and DMSO were added to control cells for all experiments. For all experiments, the cells were allowed to incubate with the medium for 24 hours before collection and cell lysates were prepared by described methods (Kitareewan et al., 1996). Both β-galactosidase and CAT reporter activity were measured based on previously used methods (Kitareewan et al, 1996). Luciferase assays using luciferrin followed the specifications of the manufacturer.
Transcriptional activity, measured as ^14C-chloramphenicol counts (for measuring CAT activity) or relative luciferase activity (RLU) was quantified for each cell lysate. The counts were then normalized by adjusting for differences in β-galactosidase activity, since β-galactosidase expression is controlled by a constitutive promoter and provides an estimate of cell mass. Data were normalized as fold-induction based on differences in reporter gene activity between hormonally treated and control cells.
In these experiments, candidate juvenoids were tested for their ability to activate FXR mediated transcription by transfecting Chinese hamster ovary (CHO) cells using the FXR plasmid, mouse RXRα, and the ΔMTV-(EcRE)5-CAT reporter as described herein. An RXR-dependent CRBPII-CAT reporter plasmid was employed in parallel assays to discern activators specific for this receptor.

Setting [1] is: dose 20 μM, 1 = no increase over vehicle.

The structures appear in SMILES notation.

Consider `CCOCn1c(-c2ccc(Cl)cc2)c(C#N)c(Br)c1C(F)(F)F` [chlorfenapyr], for which the “FXR-dependent activity, induction” value (25 μM) amounted to 10 fold.
`CC(C)(O)/C=C/C(=O)[C@](C)(O)[C@H]1[C@H](O)C[C@@]2(C)[C@@H]3CC=C4[C@@H](C[C@H](O)C(=O)C4(C)C)[C@]3(C)C(=O)C[C@]12C` [cucurbitacin D]: the “suppression of FXR-dependent activity promoted by CDCA” value (1 μM cucurbitacin D, 40 μM CDCA) is given as 58 fold. For the same compound, the “suppression of FXR-dependent activity promoted by JH III” value (1 μM cucurbitacin D, 40 μM JH III) was 7 fold.
As to `CC(C)(O)/C=C/C(=O)[C@](C)(O)[C@H]1[C@H](O)C[C@@]2(C)[C@@H]3CC=C4[C@@H](C=C(O)C(=O)C4(C)C)[C@]3(C)C(=O)C[C@]12C` [cucurbitacin I], the half-maximal inhibitory concentration (IC50) (read-out: IC50, inhibition of farnesol-induced FXR activity, data not shown) is approximately 50 nM.
For the compound `COc1cc(/C=C/C(=O)CC(=O)/C=C/c2ccc(O)c(OC)c2)ccc1O` [curcumin], the “FXR-dependent activity, induction” value (dose not stated) is on record as “ineffective”.
As for `CCCC(=O)Nc1ncnc2c1ncn2[C@@H]1O[C@@H]2COP(=O)(O)O[C@H]2[C@H]1OC(=O)CCC` [dibutyryl cAMP], the “FXR-dependent activity, induction” value (1 mM) came out at 4 fold.
Consider `C[C@H]([C@H](O)CCC(C)(C)O)[C@H]1CC[C@@]2(O)C3=CC(=O)[C@@H]4C[C@@H](O)[C@@H](O)C[C@]4(C)[C@H]3CC[C@]12C` [ecdysone], for which, under “dose not stated”, the “FXR-dependent activity, induction” value was “unresponsive”.
`C=CC(C)(O)CCCC/C=C(\C)CC(C)=O` (stereo not shown) [echinolone]: the “FXR-dependent activity, maximal induction” value (maximal (highest non-cytotoxic) dose) was 7 fold.
`CC12CCC(C1)C(C)(C)C2=O` (stereo not shown) [fenchone]: the “FXR-dependent activity, induction” value (0.5 mM) was “inactive”.
As for `CC12CCC(C1)C(C)(C)C2O` (stereo not shown) [fenchyl alcohol], under “0.5 mM”, the “FXR-dependent activity, induction” value is given as 5 fold.
`N#Cc1nn(-c2c(Cl)cc(C(F)(F)F)cc2Cl)c(N)c1[S+]([O-])C(F)(F)F` (stereo not shown) [fipronil]: the “FXR-dependent activity, induction” value (25 μM) is recorded as 20 fold.
Turning to `O=c1c(-c2ccc(O)cc2)coc2cc(O)cc(O)c12` [genistein], the “FXR-dependent CAT activity, induction” value (50 μM) was “unresponsive”.
For the compound `O=c1c(O)c(-c2ccc(O)c(O)c2)oc2c(O)c(O)cc(O)c12` [gossypetin], the “FXR-dependent CAT activity, induction” value (50 μM) is on record as “unresponsive”.
As for `O=c1[nH]cnc2nc[nH]c12` [hypoxanthine], the “FXR-dependent activity, induction” value (dose not stated) is “ineffective”.
On to `O=[N+]([O-])NC1=NCCN1Cc1ccc(Cl)nc1` [imidacloprid], for which the “FXR-dependent activity, induction” value (dose not stated) is listed as “unaffected”.
The same measure, in the same setting: then `COP(=S)(OC)SCN1C(=O)c2ccccc2C1=O` [imidan], with “inactive”.
For `CC1=C[C@]23C(=O)[C@@H](C=C(COC(=O)c4ccccc4)[C@@H](O)[C@]2(O)[C@H]1OC(=O)c1ccccc1)[C@H]1[C@@H](C[C@H]3C)C1(C)C` [ingenol-3,20-dibenzoate], for the setting “10 μM”, the “FXR-dependent activity, induction” value was 5 fold. Moreover, the “FXR ACTIVITY (fold-induction)” value (dose 10 μM) stood at 5 fold-induction.
In the case of `CC1=C[C@]23C(=O)[C@@H](C=C(CO)[C@@H](O)[C@]2(O)[C@H]1O)[C@H]1[C@@H](C[C@H]3C)C1(C)C` [ingenol], the “FXR-dependent activity, induction” value (dose not stated) is “inactive”.
Turning to `CC/C=C\C[C@H]1C(=O)CC[C@@H]1CC(=O)O` [jasmonic acid], the “FXR-dependent activity, induction” value (1 mM) was “no effect”.
Regarding `COC(=O)C1=CC[C@H]([C@H](C)CC(=O)CC(C)C)CC1` [juvabione], the “RXR mediated transcription, increase” value (plant-derived JH agonists examined as FXR effectors) came to 3 fold.
For the compound `C[C@@]12C=Cc3occc3[C@H]1CC[C@@]13C[C@@H](CC[C@H]12)[C@@](O)(CO)C3` [kahweol], the “FXR ACTIVITY (fold-induction)” value under setting [1] is 10 fold-induction.
For `O=C1C2(Cl)C3(Cl)C4(Cl)C(Cl)(Cl)C5(Cl)C3(Cl)C1(Cl)C5(Cl)C24Cl` (stereo not shown) [kepone], the “FXR-dependent CAT activity, induction” value (5 μM) worked out at 12 fold.
In the case of `C=C(C)C1CCC2(C)OC2C1` (stereo not shown) [limonene oxide], the “FXR-dependent activity, induction” value (400 μM) is “inactive”.
For `Cl[C@H]1[C@H](Cl)[C@@H](Cl)[C@@H](Cl)[C@H](Cl)[C@H]1Cl` [lindane], the “FXR-dependent CAT activity, induction” value (5 μM) is listed as 5 fold.
Turning to `CC1CCC(C(C)C)C(O)C1` (stereo not shown) [menthol], the “FXR-dependent activity, induction” value (0.5 mM) is “inactive”.
In the case of `CC/C=C\CC1C(=O)CCC1CC(=O)OC` (stereo not shown) [methyl jasmonate], the “FXR-dependent activity, induction” value (1 mM) was found to be 17 fold. Besides, the “FXR ACTIVITY (fold-induction)” value (dose 1000 μM) is listed as 18 fold-induction.
In the case of `C=C(C)[C@@]12O[C@@]3(c4ccccc4)O[C@@H]1[C@@H]1[C@@H]4O[C@]4(CO)[C@@H](O)[C@]4(O)C(=O)C(C)=C[C@H]4[C@@]1(O3)[C@H](C)[C@H]2OC(=O)/C=C/C=C/c1ccccc1` [mezerein], the “FXR-dependent activity, induction” value (10 μM) came to 3 fold.
Take `Clc1ccc(C(c2ccc(Cl)cc2)C(Cl)(Cl)Cl)cc1` [p,p-DDT]: the “FXR-dependent CAT activity, induction” value (5 μM) is reported as “not”.
Consider `C=C(C)[C@@H]1CC=C(CO)CC1` [perillyl alchol, perillyl alcohol], for which the “FXR ACTIVITY (fold-induction)” value (dose 300 μM, 1 = no increase over vehicle) is given as 4 fold-induction. Further, the “FXR-dependent activity, induction” value (dose not stated) was 4 fold.
On to `OCCc1ccccc1` [phenethyl alcohol], for which the “FXR-dependent activity, induction” value (400 μM) is listed as “inert”.
Turning to `CC(C)=CC1C(C(=O)OCc2cccc(Oc3ccccc3)c2)C1(C)C` (stereo not shown) [phenothrin], under “25 μM”, the “FXR-dependent activity, induction” value is recorded as 8 fold.
With `CCCC(=O)O[C@@H]1[C@@H](C)[C@@]2(O)[C@@H](C=C(CO)C[C@]3(O)C(=O)C(C)=C[C@@H]23)[C@@H]2C(C)(C)[C@]12OC(=O)CCC` [phorbol 12,13-dibutyrate], the “FXR-dependent activity, induction” value (10 μM) was found to be 2 fold.
In the case of `CC1(C)[C@@H]2C[C@H]1[C@@](C)(O)[C@@H](O)C2` [pinane diol], the “FXR-dependent activity, induction” value (0.5 mM) was determined as 5 fold.
Take `OCc1ccc2c(c1)OCO2` [piperonyl alcohol]: the “FXR-dependent activity, induction” value (dose not stated) is “inactive”.
Still for that read-out and setting: then `O=C(O)c1ccc2c(c1)OCO2` [piperonylic acid], with “inactive”.
With `COc1cc2c(cc1OC)OC(C)(C)C=C2` [precocene II], the “FXR-dependent activity, induction” value (dose not stated) is 15 fold. Also, the half-maximal effective concentration (EC50) (read-out: EC50 for FXR-dependent CAT activity) amounted to 150 µM.
On to `CC(COc1ccc(Oc2ccccc2)cc1)Oc1ccccn1` (stereo not shown) [pyriproxyfen], for which, under “final dose of 50 ∝M, 1 = induction less than 2-fold below cytotoxic doses”, the “FXR ACTIVITY (fold-induction)” value is 9 fold-induction.
As for `O=C(/C=C/c1ccc(O)c(O)c1)O[C@H](Cc1ccc(O)c(O)c1)C(=O)O` [rosemarinic acid], the “FXR-dependent activity, induction” value (dose not stated) is on record as “ineffective”.
With `C=C(C)[C@H]1Cc2c(ccc3c2O[C@@H]2COc4cc(OC)c(OC)cc4[C@@H]2C3=O)O1` [rotenone], under setting [1], the “FXR ACTIVITY (fold-induction)” value is given as 1 fold-induction. For the same compound, the “FXR-dependent activity, induction” value (dose not stated) was “inactive”.
For the compound `COc1cc2c(cc1OC)[C@@H]1C(=O)c3ccc(O)c(CC=C(C)C)c3O[C@@H]1CO2` [rotenonic acid], where the note is “20 μM”, the “FXR-dependent CAT activity, induction” value is on record as 20 fold. Besides, the “FXR ACTIVITY (fold-induction)” value under setting [1] was 20 fold-induction.
